Laboratory results reported in PMC8343220, “The selectivity of α‐adrenoceptor agonists for the human α1A, α1B, and α1D‐adrenoceptors” (Pharmacology Research & Perspectives, 2021).

Tests used:
human α1A‐adrenoceptor [1] = target: T1, human α1A‐adrenoceptor (Homo sapiens, UniProt P35348); assay: ERK1/2‐phosphorylation (Surefire Alphascreen), CHO‐α1A cells; assay type: cell-based
T1 construct: expressed in transfected cells; host or cells: CHO-K1
T1 sequence (P35348 1-466): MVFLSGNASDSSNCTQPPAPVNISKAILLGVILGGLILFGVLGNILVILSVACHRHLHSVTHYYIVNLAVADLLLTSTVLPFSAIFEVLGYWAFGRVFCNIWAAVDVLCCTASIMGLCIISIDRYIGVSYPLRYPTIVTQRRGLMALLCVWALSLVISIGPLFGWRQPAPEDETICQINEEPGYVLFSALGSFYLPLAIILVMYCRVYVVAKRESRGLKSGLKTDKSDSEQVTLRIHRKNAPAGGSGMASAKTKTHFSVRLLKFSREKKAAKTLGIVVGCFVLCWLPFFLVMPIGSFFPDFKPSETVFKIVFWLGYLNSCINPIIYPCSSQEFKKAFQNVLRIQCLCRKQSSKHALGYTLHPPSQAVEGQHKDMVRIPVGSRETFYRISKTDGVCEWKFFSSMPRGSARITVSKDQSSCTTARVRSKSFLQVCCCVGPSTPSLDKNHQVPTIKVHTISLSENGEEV

human α1B‐adrenoceptor [2] = target: T2, human α1B‐adrenoceptor (Homo sapiens, UniProt P35368); assay: ERK1/2‐phosphorylation (Surefire Alphascreen), CHO‐α1B cells; assay type: cell-based
T2 construct: expressed in transfected cells; host or cells: CHO-K1
T2 sequence (P35368 1-520): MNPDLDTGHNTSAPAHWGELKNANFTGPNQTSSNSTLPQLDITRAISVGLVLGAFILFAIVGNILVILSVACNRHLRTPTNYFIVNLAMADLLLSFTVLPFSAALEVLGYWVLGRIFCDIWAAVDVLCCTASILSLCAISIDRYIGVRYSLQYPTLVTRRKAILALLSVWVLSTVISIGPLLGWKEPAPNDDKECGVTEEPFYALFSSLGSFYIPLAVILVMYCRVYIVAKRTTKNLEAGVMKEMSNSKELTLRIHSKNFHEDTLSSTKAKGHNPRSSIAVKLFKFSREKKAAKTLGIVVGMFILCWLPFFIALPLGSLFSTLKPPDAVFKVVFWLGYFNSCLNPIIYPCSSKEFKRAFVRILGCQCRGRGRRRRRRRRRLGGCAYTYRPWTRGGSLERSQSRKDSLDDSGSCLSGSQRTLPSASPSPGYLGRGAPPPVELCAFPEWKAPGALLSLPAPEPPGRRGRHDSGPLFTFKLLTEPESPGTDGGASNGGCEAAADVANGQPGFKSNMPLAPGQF

human α1B‐adrenoceptor [3] = target: T2, human α1B‐adrenoceptor; assay: ^3H‐cAMP accumulation, CHO‐α1B cells; assay type: cell-based; settings: CHO‐α1B cells
human α1A‐adrenoceptor [4] = target: T1, human α1A‐adrenoceptor; assay: ^3H‐prazosin whole‐cell radioligand binding, CHO‐α1A cells
[5] = target: T3, human α1D‐adrenoceptor (full length) (Homo sapiens, UniProt P25100); assay: ^3H‐prazosin whole‐cell radioligand binding, CHO‐α1D cells
T3 construct: human α1D‐adrenoceptor (full length) were used; expressed in transfected cells; host or cells: CHO-K1
T3 sequence (P25100 1-572): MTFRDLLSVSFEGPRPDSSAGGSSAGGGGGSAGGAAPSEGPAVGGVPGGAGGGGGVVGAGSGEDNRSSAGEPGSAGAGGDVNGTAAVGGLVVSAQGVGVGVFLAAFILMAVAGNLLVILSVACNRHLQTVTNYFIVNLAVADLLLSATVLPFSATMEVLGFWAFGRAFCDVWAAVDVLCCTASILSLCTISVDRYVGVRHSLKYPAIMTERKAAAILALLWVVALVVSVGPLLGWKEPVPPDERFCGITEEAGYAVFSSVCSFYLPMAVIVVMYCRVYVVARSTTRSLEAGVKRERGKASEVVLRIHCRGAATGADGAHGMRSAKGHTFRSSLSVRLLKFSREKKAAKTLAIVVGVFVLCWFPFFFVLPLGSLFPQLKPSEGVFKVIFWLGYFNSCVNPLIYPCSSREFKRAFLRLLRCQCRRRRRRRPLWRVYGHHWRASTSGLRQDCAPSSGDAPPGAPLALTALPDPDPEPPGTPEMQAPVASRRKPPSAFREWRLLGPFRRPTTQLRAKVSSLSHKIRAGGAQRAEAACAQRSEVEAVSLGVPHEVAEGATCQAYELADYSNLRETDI

[6] = target: T3, human α1D‐adrenoceptor (full length); assay: ERK1/2‐phosphorylation (Surefire Alphascreen), CHO‐α1D cells; assay type: cell-based
[7] = test system: parental CHO cell line without any transfected receptors; assay: ERK1/2‐phosphorylation, parent CHO cells without transfected receptors; assay type: cell-based, Chinese hamster
[8] = target: T3, human α1D‐adrenoceptor (full length); assay: ^3H‐cAMP accumulation, CHO‐α1D cells; assay type: cell-based; settings: cAMP accumulation without forskolin
human α1A‐adrenoceptor [9] = target: T1, human α1A‐adrenoceptor; assay: ^3H‐cAMP accumulation, CHO‐α1A cells; assay type: cell-based; settings: CHO‐α1A cells
[10] = test system: parental CHO cell line without any transfected receptors; assay: Forskolin‐stimulated cAMP accumulation, parent CHO cells without transfected receptors; assay type: cell-based, Chinese hamster
human α1A‐adrenoceptor [11] = target: T1, human α1A‐adrenoceptor; assay: ^3H‐cAMP accumulation in the presence of 10 μM forskolin, CHO‐α1A cells; assay type: cell-based; settings: CHO‐α1A cells
[12] = test system: parental CHO cell line without any transfected receptors; assay: Intracellular calcium mobilization, parent CHO cells without transfected receptors; assay type: cell-based, Chinese hamster
human α1B‐adrenoceptor [13] = target: T2, human α1B‐adrenoceptor; assay: ^3H‐cAMP accumulation in the presence of 10 μM forskolin, CHO‐α1B cells; assay type: cell-based; settings: CHO‐α1B cells
human α1B‐adrenoceptor [14] = target: T2, human α1B‐adrenoceptor; assay: ^3H‐prazosin whole‐cell radioligand binding, CHO‐α1B cells
[15] = target: T3, human α1D‐adrenoceptor (full length); assay: ^3H‐cAMP accumulation in the presence of 10 μM forskolin, CHO‐α1D cells; assay type: cell-based; settings: CHO‐α1D cells
[16] = target: T3, human α1D‐adrenoceptor (full length); assay: Intracellular free calcium mobilization, CHO‐α1D cells; assay type: cell-based
human α1B‐adrenoceptor [17] = target: T2, human α1B‐adrenoceptor; assay: Intracellular free calcium mobilization, CHO‐α1B cells; assay type: cell-based
human α1A‐adrenoceptor [18] = target: T1, human α1A‐adrenoceptor; assay: Intracellular free calcium mobilization, CHO‐α1A cells; assay type: cell-based
[19] = test system: parental CHO cell line without any transfected receptors; assay: ^3H‐cAMP accumulation, parent CHO cells without transfected receptors; assay type: cell-based, Chinese hamster
[20] = read-out: ERK1/2‐phosphorylation Log EC50 (converted)
[21] = fold increase of the forskolin response
[22] = read-out: Intracellular calcium release Log EC50 (converted)

Cc1cccc([C@H](C)c2cnc[nH]2)c1C [Dexmedetomidine]
ERK1/2‐phosphorylation % PDBu (human α1A‐adrenoceptor [1]): 81.7 ± 4.4% | EC50 (human α1A‐adrenoceptor [1]; [20]): 0.0138 µM | ERK1/2‐phosphorylation % PDBu (human α1B‐adrenoceptor [2]): 55.4 ± 7.4% | EC50 (human α1B‐adrenoceptor [2]; [20]): 0.132 µM | cAMP accumulation % forskolin (human α1B‐adrenoceptor [3]; % forskolin maximum response): 3.7 ± 0.6% | EC50 (human α1B‐adrenoceptor [3]; read-out: cAMP accumulation Log EC50 (converted)): 0.0891 µM | Affinity selectivity ratio α1A vs α1B (human α1A‐adrenoceptor [4]): 6.9 fold | Kd (human α1A‐adrenoceptor [4]; Log KD α1A, ^3H‐prazosin whole cell binding): 1.32 µM | Affinity selectivity ratio α1A vs α1D [5]: 1.3 fold | Affinity selectivity ratio α1B vs α1D [5]: 9.3 fold | Kd ([5]; 3H‐prazosin binding Log KD): 1.23 µM | Kd ([5]; Log KD α1D, ^3H‐prazosin whole cell binding): 1.23 µM | ERK1/2‐phosphorylation % PDBu at 100 µM [6]: 19.7 ± 3.3% | Emax at 100 µM ([7]; Cricetulus griseus, CHO, read-out: ERK1/2-phosphorylation % PDBu at 100μM): 5.8 ± 2.2% | cAMP Log EC50 [8]: No response | EC50 (human α1A‐adrenoceptor [9]; 5 h, read-out: cAMP accumulation Log EC50 (converted)): 0.513 µM | cAMP accumulation % forskolin (human α1A‐adrenoceptor [9]; % of 10 µM forskolin response): 57.6 ± 5.7% | cAMP accumulation (in presence of forskolin) % forskolin-stim cAMP at 100μM ([10]; CHO cells without transfected receptors, response at 100μM only, EC50 not obtainable, % of forskolin-stimulated cAMP): 84.4 ± 4.7% | EC50 (human α1A‐adrenoceptor [11]; 10 μM forskolin, read-out: cAMP accumulation (in presence of forskolin) Log EC50 (converted)): 0.0851 µM | cAMP accumulation (in presence of forskolin) Fold increase (human α1A‐adrenoceptor [11]; [21]): 2.13 ± 0.09 fold | Emax ([12]; Cricetulus griseus, CHO cells without transfected receptors, response at maximum concentration used (c2), as % of ionomycin (10μM) response, mean ± s.e.m., read-out: Intracellular calcium release % ionomycin): 6.3 ± 4.8% | cAMP accumulation (in presence of forskolin) Fold increase (human α1B‐adrenoceptor [13]; [21]): 1.60 ± 0.07 fold | EC50 (human α1B‐adrenoceptor [13]; in presence of forskolin, read-out: cAMP accumulation (in presence of forskolin) Log EC50 (converted)): 0.0331 µM | Kd (human α1B‐adrenoceptor [14]; Log KD α1B, ^3H‐prazosin whole cell binding): 9.12 µM | Kd (human α1B‐adrenoceptor [14]; Log KD, ^3H‐prazosin binding): 9.12 µM | cAMP (in presence of forskolin) Fold increase [15, 21]: No response | cAMP (in presence of forskolin) Log EC50 ([15]; in presence of forskolin, log values given negative): No response | Intracellular calcium release % Ionomycin at 100 µM [16]: 13.1 ± 1.7% | Intracellular calcium release % ionomycin (human α1B‐adrenoceptor [17]): 43.6 ± 2.1% | Log efficacy ratio KD /EC50 (human α1B‐adrenoceptor [17]): 2.29 | EC50 (human α1B‐adrenoceptor [17]; [22]): 0.0468 µM | Intracellular calcium release % ionomycin (human α1A‐adrenoceptor [18]): 57.3 ± 2.8% | Log efficacy ratio KD /EC50 (human α1A‐adrenoceptor [18]): 1.91 | EC50 (human α1A‐adrenoceptor [18]; [22]): 0.0162 µM

COc1ccccc1N1CCN(CC2CN3C(=O)N(C)c4ccccc4C3=N2)CC1 (centres unmarked) [2-MPMDQ]
ERK1/2-phosphorylation % PDBu [7]: No response | cAMP accumulation % forskolin [19]: No response | cAMP accumulation (in presence of forskolin) % forskolin-stim cAMP [10]: No response | cAMP accumulation (in presence of forskolin) Log EC50 [10]: No response | Intracellular calcium release % ionomycin [12]: No response

CCN(CC)C(=O)N[C@H]1C=C2c3cccc4[nH]cc(c34)C[C@H]2N(C)C1 [Lisuride]
ERK1/2‐phosphorylation response in parent CHO cells [7]: stimulated ERK1/2‐phosphorylation responses | Emax ([7]; Cricetulus griseus, CHO, read-out: ERK1/2-phosphorylation % PDBu): 41 ± 6.4% | cAMP accumulation % forskolin [19]: No response | cAMP accumulation (in presence of forskolin) % forskolin-stim cAMP at 10μM [10]: 85.2 ± 5.0% | Intracellular calcium release % ionomycin [12]: No response
